Reference: patent US9499550B2 (BRISTOL-MYERS SQUIBB COMPANY, priority 2012, dated 2016)
Where two headings read alike, the source gives them in different places.

How the values were obtained:
[1] = test system: HCV genotype 1b (Con1) replicon in HUH-7 cells; assay: HCV replicon luciferase reporter assay, genotype 1b; assay type: cell-based; conditions: Hepatitis C virus, Huh-7, 72 h, 3 days incubation
Summary of the method: (§1)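 Replicon inhibition for both genotypes was measured as Renilla luciferase signal (EnduRen, 7.5 μM final, 2 h) after 3-day, 37° C exposure of replicon-bearing HUH-7 cells in 4% FCS DMEM, 0.5% DMSO. The 1b construct carries S1179I; the 1a H77 construct carries P1496L and S2204I. Twenty-point, 3-fold dilutions were fitted four-parametrically for EC50, and CC50 was taken from multiplexed Cell Titer-Blue.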

[2] = test system: HCV genotype 1a (H77 strain) replicon in HUH-7 cells; assay: HCV replicon luciferase reporter assay, genotype 1a; assay type: cell-based; conditions: Hepatitis C virus, Huh-7, 72 h, 3 days incubation
Summary of the method: as §1

[3] = HCV genotype 1b replicon luciferase, read-out: LE_1b (EC50)
[4] = HCV genotype 1b replicon luciferase, read-out: LE_1b (EC50, range)
[5] = HCV genotype 1a replicon luciferase, read-out: LE_1a (EC50)
[6] = HCV genotype 1a replicon luciferase, read-out: LE_1a (EC50, range)

SMILES | EC50 [1, 3] | EC50 [1, 4] | EC50 [2, 5] | EC50 [2, 6] | EC50 ([1]; HCV genotype 1b replicon luciferase assay, range class, read-out: LE_1b (EC50, range)) | EC50 ([2]; HCV genotype 1a replicon luciferase assay, range class, read-out: LE_1a (EC50, range))
CCn1nc(O[C@@H]2C[C@H]3C(=O)N[C@]4(C(=O)NS(=O)(=O)C5(C)CC5)C[C@H]4/C=C\CC[C@@H](C)C[C@@H](C)[C@H](NC(=O)C(=O)N(C)C)C(=O)N3C2)c2ccccc2c1=O [Compound 5063, N1-((2R,6S,7R,9R,13aS,14aR,16aS,Z)-2-((3-ethyl-4-oxo-3,4-dihydrophthalazin-1-yl)oxy)-7,9-dimethyl-14a-(((1-methylcyclopropyl)sulfonyl)carbamoyl)-5,16-dioxo-1,2,3,5,6,7,8,9,10,11,13a,14,14a,15,16,16a-hexadecahydrocyclopropa[e]pyrrolo[1,2-a][1,4]diazacyclopentadecin-6-yl)-N2,N2-dimethyloxalamide] | 479 nM | > 87.4 nM | ≥ 1000 nM | > 87.4 nM | – | –
C[C@H]1CC/C=C\[C@@H]2C[C@@]2(C(=O)NS(=O)(=O)C2CC2)NC(=O)[C@@H]2C[C@@H](Oc3nccc4c5c(ccc34)N(C)CCO5)CN2C(=O)[C@@H](NC(=O)NC(C)(C)C)[C@H](C)C1 [Compound 5283, (2R,6S,7R,9S,13aS,14aR,16aS,Z)-6-(3-(tert-butyl)ureido)-N-(cyclopropylsulfonyl)-7,9-dimethyl-2-((4-methyl-3,4-dihydro-2H-[1,4]oxazino[2,3-f]isoquinolin-7-yl)oxy)-5,16-dioxo-1,2,3,5,6,7,8,9,10,11,13a,14,14a,15,16,16a-hexadecahydrocyclopropa[e]pyrrolo[1,2-a][1,4]diazacyclopentadecine-14a-carboxamide] | 3.12 nM | < 5.46 nM | 4.82 nM | < 5.46 nM | – | –
COc1ccc2c(O[C@@H]3C[C@H]4C(=O)N[C@]5(C(=O)NS(=O)(=O)C6(CF)CC6)C[C@H]5/C=C\CC[C@H](C)C[C@@H](C)[C@H](NC(=O)OC(C)(C)C(F)(F)F)C(=O)N4C3)nc(N(C)C)nc2c1 [Compound 3009, 1,1,1-trifluoro-2-methylpropan-2-yl((2R,6S,7R,9S,13aS,14aR,16aS,Z)-2-((2-(dimethylamino)-7-methoxyquinazolin-4-yl)oxy)-14a-(((1-(fluoromethyl)cyclopropyl)sulfonyl)carbamoyl)-7,9-dimethyl-5,16-dioxo-1,2,3,5,6,7,8,9,10,11,13a,14,14a,15,16,16a-hexadecahydrocyclopropa[e]pyrrolo[1,2-a][1,4]diazacyclopentadecin-6-yl)carbamate] | – | – | – | – | 4.82 to 103 nM | 4.82 to 103 nM
CC[C@@H]1C[C@@H](C)CC/C=C\[C@@H]2C[C@@]2(C(=O)NS(=O)(=O)C2CC2)NC(=O)[C@@H]2C[C@@H](Oc3nccc4c5c(ccc34)OCCO5)CN2C(=O)[C@H]1NC(=O)OC(C)(C)C(F)(F)F [Compound 5337, 1,1,1-trifluoro-2-methylpropan-2-yl((2R,6S,7R,9S,13aS,14aR,16aS,Z)-14a-((cyclopropylsulfonyl)carbamoyl)-2-((2,3-dihydro-[1,4]dioxino[2,3-f]isoquinolin-7-yl)oxy)-7-ethyl-9-methyl-5,16-dioxo-1,2,3,5,6,7,8,9,10,11,13a,14,14a,15,16,16a-hexadecahydrocyclopropa[e]pyrrolo[1,2-a][1,4]diazacyclopentadecin-6-yl)carbamate] | – | < 5.46 nM | – | 4.82 to 103 nM | – | –
COc1cnc(O[C@@H]2C[C@H]3C(=O)N[C@]4(C(=O)NS(=O)(=O)C5(F)CC5)C[C@H]4/C=C\CC[C@H](C)C[C@@H](C)[C@H](NC(=O)OC(C)(C)C)C(=O)N3C2)c2cc(F)ccc12 [Compound 4046, tert-butyl (2R,6S,7R,9S,13aS,14aR,16aS,Z)-2-(7-fluoro-4-methoxyisoquinolin-1-yloxy)-14a-(1-fluorocyclopropylsulfonylcarbamoyl)-7,9-dimethyl-5,16-dioxo-1,2,3,5,6,7,8,9,10,11,13a,14,14a,15,16,16a-hexadecahydrocyclopropa[e]pyrrolo[1,2-a][1,4]diazacyclopentadecin-6-ylcarbamate] | – | 4.82 to 103 nM | – | 4.82 to 103 nM | – | –
CC[C@@H]1C[C@H](C)CC/C=C\[C@@H]2C[C@@]2(C(=O)NS(=O)(=O)C2(C)CC2)NC(=O)[C@@H]2C[C@@H](Oc3nc(OC)cc4cc(F)ccc34)CN2C(=O)[C@H]1NC(=O)OC(C)(C)C [Compound 3212, tert-butyl ((2R,6S,7R,9R,13aS,14aR,16aS,Z)-7-ethyl-2-((6-fluoro-3-methoxyisoquinolin-1-yl)oxy)-9-methyl-14a-(((1-methylcyclopropyl)sulfonyl)carbamoyl)-5,16-dioxo-1,2,3,5,6,7,8,9,10,11,13a,14,14a,15,16,16a-hexadecahydrocyclopropa[e]pyrrolo[1,2-a][1,4]diazacyclopentadecin-6-yl)carbamate] | – | 0.1 to 0.5 nM | – | 0.51 to 1 nM | – | –
CC[C@@H]1C[C@H](C)CC/C=C\[C@@H]2C[C@@]2(C(=O)NS(=O)(=O)C2(CF)CC2)NC(=O)[C@@H]2C[C@@H](Oc3nc4c(c5cc(OC)ccc35)CCCO4)CN2C(=O)[C@H]1NC(=O)OC(C)(C)C(F)(F)F [Compound 6086, 1,1,1-trifluoro-2-methylpropan-2-yl((2R,6S,7R,9R,13aS,14aR,16aS,Z)-7-ethyl-14a-(((1-(fluoromethyl)cyclopropyl)sulfonyl)carbamoyl)-2-((9-methoxy-2,3-dihydro-1H-pyrano[2,3-c]isoquinolin-6-yl)oxy)-9-methyl-5,16-dioxo-1,2,3,5,6,7,8,9,10,11,13a,14,14a,15,16,16a-hexadecahydrocyclopropa[e]pyrrolo[1,2-a][1,4]diazacyclopentadecin-6-yl)carbamate] | – | 5.01 to 35 nM | – | 5.01 to 35 nM | – | –
CCOc1cnc(O[C@@H]2C[C@H]3C(=O)N[C@]4(C(=O)NS(=O)(=O)C5(C)CC5)C[C@H]4/C=C\CC[C@@H](C)C[C@@H](C)[C@H](NC(=O)OC(C)(C)C)C(=O)N3C2)c2cc(Cl)ccc12 [Compound 4075, tert-butyl (2R,6S,7R,9R,13aS,14aR,16aS,Z)-2-(7-chloro-4-ethoxyisoquinolin-1-yloxy)-7,9-dimethyl-14a-(1-methylcyclopropylsulfonylcarbamoyl)-5,16-dioxo-1,2,3,5,6,7,8,9,10,11,13a,14,14a,15,16,16a-hexadecahydrocyclopropa[e]pyrrolo[1,2-a][1,4]diazacyclopentadecin-6-ylcarbamate] | – | < 5.46 nM | – | < 5.46 nM | – | –
[2H]C([2H])([2H])C(OC(=O)N[C@@H]1C(=O)N2C[C@H](Oc3nccc4cc(OCCC)ccc34)C[C@H]2C(=O)N[C@]2(C(=O)NS(=O)(=O)C3CC3)C[C@H]2/C=C\CC[C@@H](C)C[C@H]1C)(C([2H])([2H])[2H])C(F)(F)F [Compound 5173] | – | < 5.46 nM | – | < 5.46 nM | – | –
C[C@H]1CC/C=C\[C@@H]2C[C@@]2(C(=O)NS(=O)(=O)C2CC2)NC(=O)[C@@H]2C[C@@H](Oc3nccc4c5c(ccc34)N(C)CCO5)CN2C(=O)[C@@H](NC(=O)c2ccc(N(C)C)cc2)[C@H](C)C1 [Compound 5289, (2R,6S,7R,9S,13aS,14aR,16aS,Z)—N-(cyclopropylsulfonyl)-6-(4-(dimethylamino)benzamido)-7,9-dimethyl-2-((4-methyl-3,4-dihydro-2H-[1,4]oxazino[2,3-f]isoquinolin-7-yl)oxy)-5,16-dioxo-1,2,3,5,6,7,8,9,10,11,13a,14,14a,15,16,16a-hexadecahydrocyclopropa[e]pyrrolo[1,2-a][1,4]diazacyclopentadecine-14a-carboxamide] | – | < 5.46 nM | – | 4.82 to 103 nM | – | –
COc1cnc(O[C@@H]2C[C@H]3C(=O)N[C@]4(C(=O)NS(=O)(=O)C5(CF)CC5)C[C@H]4CCCC[C@@H](C)C[C@@H](C)[C@H](NC(=O)OC(C)(C)C(C)(F)F)C(=O)N3C2)c2ccccc12 [Compound 5119, 3,3-difluoro-2-methylbutan-2-yl ((2R,6S,7R,9R,13 aR,14aR,16aS)-14a-(((1-(fluoromethyl)cyclopropyl)sulfonyl)carbamoyl)-2-((4-methoxyisoquinolin-1-yl)oxy)-7,9-dimethyl-5,16-dioxooctadecahydrocyclopropa[e]pyrrolo[1,2-a][1,4]diazacyclopentadecin-6-yl)carbamate] | – | < 5.46 nM | – | < 5.46 nM | – | –
C[C@@H]1CC/C=C\[C@@H]2C[C@@]2(C(=O)NS(=O)(=O)C2CC2)NC(=O)[C@@H]2C[C@@H](Oc3nccc4c5c(ccc34)OC(F)(F)O5)CN2C(=O)[C@@H](NC(=O)OCC2(C)CC2)[C@H](C)C1 [Compound 5272, (1-methylcyclopropyl)methyl ((2R,6S,7R,9R,13aS,14aR,16aS,Z)-14a-((cyclopropylsulfonyl)carbamoyl)-2-((2,2-difluoro-[1,3]dioxolo[4,5-f]isoquinolin-6-yl)oxy)-7,9-dimethyl-5,16-dioxo-1,2,3,5,6,7,8,9,10,11,13a,14,14a,15,16,16a-hexadecahydrocyclopropa[e]pyrrolo[1,2-a][1,4]diazacyclopentadecin-6-yl)carbamate] | – | < 5.46 nM | – | < 5.46 nM | – | –
